Patent US8821938B2, “Porous drug matrices and methods of manufacture thereof” (Acusphere, Inc., priority 1999, dated 2014)

What was measured:
Type in all cases: physicochemical
[1] = Density of dry powder by Transaxial Pressure (TAP), Micromeritics GeoPyc 1360; settings: consolidation force of 8 Newtons
[2] = Drug integrity post processing by HPLC
Experimental: Drug integrity post processing was assessed by High Pressure Liquid Chromatography (“HPLC”) (Hewlett Packard Series 1100 HPLC). […] For paclitaxel, the chromatographic conditions included a Nucleosil column (5:m, C18, 100A, 250×4.6 mm), a mobile phase of 2 mM H3PO4/Acetonitrile (2:3) at a flow rate of 1.5 mL/min, UV detection at 227 nm, and a run time of 25 min.

[3] = Particle size and surface area of drug particles in wetted matrices, Coulter Multisizer II; settings: reconstituted in aqueous media; electrolyte pre-saturated with drug
Experimental: Particle size analysis was performed using the Coulter Multisizer II with a 50 micron aperture using siphon mode. Electrolyte was pre-saturated with the drug of interest, and filtered through a 0.22 micron filter prior to addition of lots for analysis to ensure that no portion of the drug within the lot would dissolve during the analysis.

| Density [1] | Purity (drug integrity post processing) [2] | Size (mean particle size of drug particles) [3] | Surface Area (total surface area of drug particles) [3] | Compound |
| --- | --- | --- | --- | --- |
| 0.80 g/mL | 95.7% | 2.42 microns | 0.88 m^2/mL of microparticles | COC1=CC(=O)C[C@@H](C)[C@]12Oc1c(Cl)c(OC)cc(OC)c1C2=O [Griseofulvin Bulk, griseofulvin] |
|  |  | 2.89 microns | 0.66 m^2/mL of microparticles | COc1ccc2cc([C@H](C)C(=O)O)ccc2c1 [Naproxen Bulk, naproxen] |
|  | 100% |  |  | CC(=O)O[C@H]1C(=O)[C@@]2(C)[C@H]([C@H](OC(=O)c3ccccc3)[C@]3(O)C[C@H](OC(=O)[C@H](O)[C@@H](NC(=O)c4ccccc4)c4ccccc4)C(C)=C1C3(C)C)[C@]1(OC(C)=O)CO[C@@H]1C[C@@H]2O [Paclitaxel Bulk, paclitaxel] |
| 0.68 g/mL | 100% | 2.07 microns | 1.43 m^2/mL of microparticles | C[C@]12C=CC(=O)C=C1CC[C@@H]1[C@@H]2C(=O)C[C@@]2(C)[C@H]1CC[C@]2(O)C(=O)CO [Prednisone Bulk, prednisone] |
